Source: PubChem BioAssay (NCI)
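Growth conditions: 96-well plates. Treatment: test compound, 48 hours, 5 concentrations. Analysis: linear interpolation between bracketing concentrations; unreached endpoints set to highest concentration. Definition used: TGI = concentration required for complete inhibition of growth.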

Key:
Experiment in all cases: NCI anticancer screen, dose series, 48 h
HS 578T breast = test system: HS 578T breast
HCT-116 colon = test system: HCT-116 colon
MCF7 breast = test system: MCF7 breast
CCRF-CEM leukemia = test system: CCRF-CEM leukemia
SK-MEL-28 melanoma = test system: SK-MEL-28 melanoma
HOP-92 NSCLC = test system: HOP-92 NSCLC
BT-549 breast = test system: BT-549 breast
IGROV1 ovarian = test system: IGROV1 ovarian
NCI/ADR-RES ovarian = test system: NCI/ADR-RES ovarian
KM12 colon = test system: KM12 colon
SK-MEL-5 melanoma = test system: SK-MEL-5 melanoma
CAKI-1 renal = test system: CAKI-1 renal
NCI-H522 lung = test system: NCI-H522 lung
NCI-H226 lung = test system: NCI-H226 lung
MDA-MB-231 breast = test system: MDA-MB-231 breast
A498 renal = test system: A498 renal
TK-10 renal = test system: TK-10 renal
NCI-H460 lung = test system: NCI-H460 lung
PC-3 prostate = test system: PC-3 prostate
HL-60(TB) leukemia = test system: HL-60(TB) leukemia
COLO 205 colon = test system: COLO 205 colon
SR leukemia = test system: SR leukemia
786-0 renal = test system: 786-0 renal
NCI-H23 lung = test system: NCI-H23 lung
SW-620 colon = test system: SW-620 colon
M14 melanoma = test system: M14 melanoma
SK-OV-3 ovarian = test system: SK-OV-3 ovarian
OVCAR-5 ovarian = test system: OVCAR-5 ovarian
MOLT-4 leukemia = test system: MOLT-4 leukemia
SNB-75 CNS = test system: SNB-75 CNS
UACC-257 melanoma = test system: UACC-257 melanoma
LOX IMVI melanoma = test system: LOX IMVI melanoma
HCC-2998 colon = test system: HCC-2998 colon
MDA-N = test system: MDA-N
EKVX NSCLC = test system: EKVX NSCLC
UACC-62 melanoma = test system: UACC-62 melanoma
ACHN renal = test system: ACHN renal
OVCAR-3 ovarian = test system: OVCAR-3 ovarian
SF-295 CNS = test system: SF-295 CNS
U251 CNS = test system: U251 CNS
DU-145 prostate = test system: DU-145 prostate
OVCAR-8 ovarian = test system: OVCAR-8 ovarian
HOP-62 NSCLC = test system: HOP-62 NSCLC
OVCAR-4 ovarian = test system: OVCAR-4 ovarian
RPMI-8226 leukemia = test system: RPMI-8226 leukemia
UO-31 renal = test system: UO-31 renal
K-562 leukemia = test system: K-562 leukemia
SF-268 CNS = test system: SF-268 CNS
T-47D breast = test system: T-47D breast
SN12C renal = test system: SN12C renal
MDA-MB-435 = test system: MDA-MB-435
A549 NSCLC = test system: A549 NSCLC
HT29 colon = test system: HT29 colon
SK-MEL-2 melanoma = test system: SK-MEL-2 melanoma
HCT-15 colon = test system: HCT-15 colon
SF-539 CNS = test system: SF-539 CNS
SNB-19 CNS = test system: SNB-19 CNS
RXF 393 renal = test system: RXF 393 renal
MALME-3M melanoma = test system: MALME-3M melanoma

With `[N-]=[N+]=NCC1OCC(O)C(OCc2ccccc2)C1OCc1ccccc1` (configuration not stated) the TGI (HS 578T breast) was greater than 100 µM, the TGI (HCT-116 colon) was greater than 100 µM and the TGI (MCF7 breast) was greater than 100 µM. For the same molecule, the TGI (CCRF-CEM leukemia) was greater than 100 µM, the TGI (SK-MEL-28 melanoma) was greater than 100 µM and the TGI (HOP-92 NSCLC) was greater than 100 µM. For the same molecule, the TGI (BT-549 breast) was greater than 100 µM, the TGI (IGROV1 ovarian) was greater than 100 µM and the TGI (NCI/ADR-RES ovarian) was greater than 100 µM. It also gave a TGI (KM12 colon) greater than 100 µM, a TGI (SK-MEL-5 melanoma) greater than 100 µM and a TGI (CAKI-1 renal) greater than 100 µM. It also gave a TGI (NCI-H522 lung) greater than 100 µM, a TGI (NCI-H226 lung) greater than 100 µM and a TGI (MDA-MB-231 breast) greater than 100 µM. It also gave a TGI (A498 renal) greater than 100 µM, a TGI (TK-10 renal) greater than 100 µM and a TGI (NCI-H460 lung) greater than 100 µM. For the same molecule, the TGI (PC-3 prostate) was greater than 100 µM, the TGI (HL-60(TB) leukemia) was greater than 100 µM and the TGI (COLO 205 colon) was greater than 100 µM. For the same molecule, the TGI (SR leukemia) was greater than 100 µM, the TGI (786-0 renal) was greater than 100 µM and the TGI (NCI-H23 lung) was greater than 100 µM. It also gave a TGI (SW-620 colon) greater than 100 µM, a TGI (M14 melanoma) greater than 100 µM and a TGI (SK-OV-3 ovarian) greater than 100 µM. It also gave a TGI (OVCAR-5 ovarian) greater than 100 µM, a TGI (MOLT-4 leukemia) greater than 100 µM and a TGI (SNB-75 CNS) greater than 100 µM. The TGI (UACC-257 melanoma) was greater than 100 µM, the TGI (LOX IMVI melanoma) was greater than 100 µM and the TGI (HCC-2998 colon) was greater than 100 µM. The TGI (MDA-N) was greater than 100 µM, the TGI (EKVX NSCLC) was greater than 100 µM and the TGI (UACC-62 melanoma) was greater than 100 µM. The TGI (ACHN renal) was greater than 100 µM, the TGI (OVCAR-3 ovarian) was greater than 100 µM and the TGI (SF-295 CNS) was greater than 100 µM. The TGI (U251 CNS) was greater than 100 µM, the TGI (DU-145 prostate) was greater than 100 µM and the TGI (OVCAR-8 ovarian) was greater than 100 µM. The TGI (HOP-62 NSCLC) was greater than 100 µM, the TGI (OVCAR-4 ovarian) was greater than 100 µM and the TGI (RPMI-8226 leukemia) was greater than 100 µM. For the same molecule, the TGI (UO-31 renal) was greater than 100 µM, the TGI (K-562 leukemia) was greater than 100 µM and the TGI (SF-268 CNS) was greater than 100 µM. It also gave a TGI (T-47D breast) greater than 100 µM, a TGI (SN12C renal) greater than 100 µM and a TGI (MDA-MB-435) greater than 100 µM. It also gave a TGI (A549 NSCLC) greater than 100 µM, a TGI (HT29 colon) greater than 100 µM and a TGI (SK-MEL-2 melanoma) greater than 100 µM. It also gave a TGI (HCT-15 colon) greater than 100 µM, a TGI (SF-539 CNS) greater than 100 µM and a TGI (SNB-19 CNS) greater than 100 µM.

`COc1ccc(-c2ncnc(-c3ccc(OC)c(OC)c3)n2)cc1OC` showed a TGI (HS 578T breast) greater than 100 µM, a TGI (HCT-116 colon) greater than 100 µM and a TGI (MCF7 breast) greater than 100 µM. For the same molecule, the TGI (CCRF-CEM leukemia) was greater than 100 µM, the TGI (SK-MEL-28 melanoma) was greater than 100 µM and the TGI (HOP-92 NSCLC) was greater than 100 µM. It also gave a TGI (BT-549 breast) greater than 100 µM, a TGI (IGROV1 ovarian) greater than 100 µM and a TGI (NCI/ADR-RES ovarian) greater than 100 µM. The TGI (KM12 colon) was greater than 100 µM, the TGI (SK-MEL-5 melanoma) was greater than 100 µM and the TGI (CAKI-1 renal) was greater than 100 µM. For the same molecule, the TGI (NCI-H522 lung) was greater than 100 µM, the TGI (RXF 393 renal) was greater than 100 µM and the TGI (NCI-H226 lung) was greater than 100 µM. It also gave a TGI (MDA-MB-231 breast) greater than 100 µM, a TGI (A498 renal) greater than 100 µM and a TGI (TK-10 renal) greater than 100 µM. It also gave a TGI (PC-3 prostate) greater than 100 µM, a TGI (HL-60(TB) leukemia) greater than 100 µM and a TGI (COLO 205 colon) greater than 100 µM. For the same molecule, the TGI (SR leukemia) was greater than 100 µM, the TGI (786-0 renal) was greater than 100 µM and the TGI (NCI-H23 lung) was greater than 100 µM. For the same molecule, the TGI (SW-620 colon) was greater than 100 µM, the TGI (M14 melanoma) was greater than 100 µM and the TGI (SK-OV-3 ovarian) was greater than 100 µM. For the same molecule, the TGI (OVCAR-5 ovarian) was greater than 100 µM, the TGI (SNB-75 CNS) was greater than 100 µM and the TGI (UACC-257 melanoma) was greater than 100 µM. For the same molecule, the TGI (LOX IMVI melanoma) was greater than 100 µM, the TGI (HCC-2998 colon) was greater than 100 µM and the TGI (MDA-N) was greater than 100 µM. For the same molecule, the TGI (EKVX NSCLC) was greater than 100 µM, the TGI (UACC-62 melanoma) was greater than 100 µM and the TGI (ACHN renal) was greater than 100 µM. The TGI (OVCAR-3 ovarian) was greater than 100 µM, the TGI (SF-295 CNS) was greater than 100 µM and the TGI (U251 CNS) was greater than 100 µM. The TGI (DU-145 prostate) was greater than 100 µM, the TGI (OVCAR-8 ovarian) was greater than 100 µM and the TGI (HOP-62 NSCLC) was greater than 100 µM. For the same molecule, the TGI (UO-31 renal) was greater than 100 µM, the TGI (K-562 leukemia) was greater than 100 µM and the TGI (MALME-3M melanoma) was greater than 100 µM. For the same molecule, the TGI (SF-268 CNS) was greater than 100 µM, the TGI (T-47D breast) was greater than 100 µM and the TGI (SN12C renal) was greater than 100 µM. It also gave a TGI (MDA-MB-435) greater than 100 µM, a TGI (A549 NSCLC) greater than 100 µM and a TGI (HT29 colon) greater than 100 µM. The TGI (SK-MEL-2 melanoma) was greater than 100 µM.

For `Cc1cccc(-n2c(C)nc3ccc(NC(=S)Nc4ccccc4)cc3c2=O)c1`, the TGI (HS 578T breast) was greater than 100 µM, the TGI (HCT-116 colon) was greater than 100 µM and the TGI (MCF7 breast) was greater than 100 µM. For the same molecule, the TGI (SK-MEL-28 melanoma) was greater than 100 µM, the TGI (BT-549 breast) was greater than 100 µM and the TGI (IGROV1 ovarian) was greater than 100 µM. The TGI (NCI/ADR-RES ovarian) was greater than 100 µM, the TGI (KM12 colon) was greater than 100 µM and the TGI (SK-MEL-5 melanoma) was 57.1 µM. It also gave a TGI (CAKI-1 renal) greater than 100 µM, a TGI (NCI-H522 lung) greater than 100 µM and a TGI (RXF 393 renal) greater than 100 µM. For the same molecule, the TGI (NCI-H226 lung) was greater than 100 µM, the TGI (MDA-MB-231 breast) was greater than 100 µM and the TGI (A498 renal) was greater than 100 µM. For the same molecule, the TGI (TK-10 renal) was greater than 100 µM, the TGI (NCI-H460 lung) was greater than 100 µM and the TGI (PC-3 prostate) was greater than 100 µM. The TGI (HL-60(TB) leukemia) was greater than 100 µM, the TGI (COLO 205 colon) was greater than 100 µM and the TGI (SR leukemia) was greater than 100 µM. For the same molecule, the TGI (786-0 renal) was greater than 100 µM, the TGI (NCI-H23 lung) was greater than 100 µM and the TGI (SW-620 colon) was greater than 100 µM. The TGI (OVCAR-5 ovarian) was greater than 100 µM, the TGI (MOLT-4 leukemia) was 71.9 µM and the TGI (SNB-75 CNS) was greater than 100 µM. The TGI (UACC-257 melanoma) was greater than 100 µM, the TGI (LOX IMVI melanoma) was greater than 100 µM and the TGI (HCC-2998 colon) was 78.1 µM. The TGI (MDA-N) was greater than 100 µM, the TGI (EKVX NSCLC) was greater than 100 µM and the TGI (UACC-62 melanoma) was greater than 100 µM. For the same molecule, the TGI (ACHN renal) was greater than 100 µM, the TGI (OVCAR-3 ovarian) was greater than 100 µM and the TGI (SF-295 CNS) was greater than 100 µM. The TGI (U251 CNS) was greater than 100 µM, the TGI (DU-145 prostate) was greater than 100 µM and the TGI (OVCAR-8 ovarian) was greater than 100 µM. It also gave a TGI (HOP-62 NSCLC) greater than 100 µM, a TGI (OVCAR-4 ovarian) greater than 100 µM and a TGI (RPMI-8226 leukemia) greater than 100 µM. The TGI (UO-31 renal) was greater than 100 µM, the TGI (K-562 leukemia) was greater than 100 µM and the TGI (MALME-3M melanoma) was greater than 100 µM. It also gave a TGI (SF-268 CNS) greater than 100 µM, a TGI (T-47D breast) greater than 100 µM and a TGI (SN12C renal) greater than 100 µM. For the same molecule, the TGI (MDA-MB-435) was greater than 100 µM, the TGI (HT29 colon) was greater than 100 µM and the TGI (SK-MEL-2 melanoma) was greater than 100 µM. For the same molecule, the TGI (HCT-15 colon) was greater than 100 µM and the TGI (SNB-19 CNS) was greater than 100 µM.
